Source: patent US9914730B2, “Azaquinazoline inhibitors of Atypical protein Kinase C” (Ignyta, Inc., priority 2012, dated 2018)
pIC50: −log10 of the molar value.

Target: T1, full-length human PKCι (Homo sapiens, UniProt P41743)
T1 construct: Recombinant, full-length human PKCι expressed in Sf21 insect cells is also commercially available; purchased; host or cells: Sf21 insect cells
T1 sequence (P41743 1-596): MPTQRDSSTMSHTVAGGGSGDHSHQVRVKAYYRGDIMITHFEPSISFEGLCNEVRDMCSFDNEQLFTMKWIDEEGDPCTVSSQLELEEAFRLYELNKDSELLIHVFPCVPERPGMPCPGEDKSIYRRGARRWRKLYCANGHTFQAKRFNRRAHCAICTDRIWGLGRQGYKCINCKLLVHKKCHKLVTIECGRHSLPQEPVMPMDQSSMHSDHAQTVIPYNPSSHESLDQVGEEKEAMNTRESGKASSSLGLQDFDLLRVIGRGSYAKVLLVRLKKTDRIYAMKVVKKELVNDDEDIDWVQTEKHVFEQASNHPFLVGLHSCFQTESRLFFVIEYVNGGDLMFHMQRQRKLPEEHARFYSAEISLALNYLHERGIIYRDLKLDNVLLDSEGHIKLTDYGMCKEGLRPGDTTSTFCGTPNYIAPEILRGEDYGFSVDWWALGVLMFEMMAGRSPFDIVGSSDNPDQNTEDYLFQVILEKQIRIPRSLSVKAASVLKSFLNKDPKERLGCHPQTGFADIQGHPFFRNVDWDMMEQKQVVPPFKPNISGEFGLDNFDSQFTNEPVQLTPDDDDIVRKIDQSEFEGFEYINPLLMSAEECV
Experiment: PKCι IC50 IMAP assay, full-length PKCι at 150 μM ATP
Type: biochemical
Details: read-out: IC50 in IMAP assay against full length PKCi at 150 μM ATP
Summary of the method: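 Dose-response IC50 values come from IMAP fluorescence polarisation after 60 min room-temperature turnover of 100 nM FAM peptide by ~15 pM insect-cell-expressed full-length PKCι at 150 μM ATP (5× KM^APP), normalised to no-compound and no-enzyme controls.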

Compound | pIC50
COCCN1CCN(c2nc(-c3ccnc(NC(=O)C4CC4)c3)nc3cncc(C4CC4)c23)CC1 [Example 666, Cyclopropane-carboxylic acid (4-{5-cyclopropyl-4-[4-(2-methoxy-ethyl)-piperazin-1-yl]-pyrido[3,4-d]pyrimidin-2-yl}-pyridin-2-yl)-amide] | 5.00 to 6.00
O=C(NCCN1CCCC1)C1CCN(c2nc(-c3ccnc(Nc4c(F)cccc4F)c3)nc3cncc(C4CC4)c23)CC1 [Example 668, 1-{5-Cyclopropyl-2-[2-(2,6-difluoro-phenylamino)-pyridin-4-yl]-pyrido[3,4-d]pyrimidin-4-yl}-piperidine-4-carboxylic acid (2-pyrrolidin-1-yl-ethyl)-amide] | > 7.00
Fc1ccnc(F)c1Nc1cc(-c2nc(N3CCNCC3)c3c(C4CC4)cncc3n2)ccn1 [Example 670, [4-(5-Cyclopropyl-4-piperazin-1-yl-pyrido[3,4-d]pyrimidin-2-yl)-pyridin-2-yl]-(2,4-difluoro-pyridin-3-yl)-amine] | > 7.00
Fc1ccc(Nc2cc(-c3nc(N4CCNCC4)c4c(C5CC5)cncc4n3)ccn2)cn1 [Example 672, [4-(5-Cyclopropyl-4-piperazin-1-yl-pyrido[3,4-d]pyrimidin-2-yl)-pyridin-2-yl]-(6-fluoro-pyridin-3-yl)-amine] | > 7.00
FC1(F)CCCC(Nc2cc(-c3nc(N4CCNCC4)c4c(C5CC5)cncc4n3)ccn2)C1 (stereo not shown) [Example 673, [4-(5-Cyclopropyl-4-piperazin-1-yl-pyrido[3,4-d]pyrimidin-2-yl)-pyridin-2-yl]-(3,3-difluoro-cyclohexyl)-amine] | > 7.00
CC(C)NC(=O)C1CCN(c2nc(-c3ccnc(NC4CCCCC4)c3)nc3cncc(C4CC4)c23)CC1 [Example 674, 1-[2-(2-Cyclohexylamino-pyridin-4-yl)-5-cyclopropyl-pyrido[3,4-d]pyrimidin-4-yl]-piperidine-4-carboxylicacid isopropylamide] | 5.00 to 6.00
Fc1cc(Nc2cc(-c3nc(N4CCNCC4)c4c(C5CC5)cncc4n3)ccn2)c(F)c(F)n1 [Example 682, [4-(5-Cyclopropyl-4-piperazin-1-yl-pyrido[3,4-d]pyrimidin-2-yl)-pyridin-2-yl]-(2,3,6-trifluoro-pyridin-4-yl)-amine] | 6.00 to 7.00
c1ccc(-c2ccc(Nc3cc(-c4nc(N5CCNCC5)c5c(C6CC6)cncc5n4)ccn3)cc2)cc1 [Example 683, Biphenyl-4-yl-[4-(5-cyclopropyl-4-piperazin-1-yl-pyrido[3,4-d]pyrimidin-2-yl)-pyridin-2-yl]-amine] | 5.00 to 6.00
O=C(O)c1ccc(Nc2cc(-c3nc(N4CCNCC4)c4c(C5CC5)cncc4n3)ccn2)cc1 [Example 684, 4-[4-(5-Cyclopropyl-4-piperazin-1-yl-pyrido[3,4-d]pyrimidin-2-yl)-pyridin-2-ylamino]-benzoic acid] | 6.00 to 7.00
O=C(NCCO)C1CCN(c2nc(-c3ccnc(Nc4c(F)cccc4F)c3)nc3cncc(C4CC4)c23)CC1 [Example 685, 1-{5-Cyclopropyl-2-[2-(2,6-difluoro-phenylamino)-pyridin-4-yl]-pyrido[3,4-d]pyrimidin-4-yl}-piperidine-4-carboxylic acid (2-hydroxy-ethyl)-amide] | 6.00 to 7.00
CN(C)C(=O)C1CCN(c2nc(-c3ccnc(Nc4c(F)cccc4F)c3)nc3cncc(C4CC4)c23)CC1 [Example 686, 1-{5-Cyclopropyl-2-[2-(2,6-difluoro-phenylamino)-pyridin-4-yl]-pyrido[3,4-d]pyrimidin-4-yl}-piperidine-4-carboxylic acid dimethylamide] | 6.00 to 7.00
CN1CCN(c2cccc(Nc3cc(-c4nc(N5CCC(O)CC5)c5c(C6CC6)cncc5n4)ccn3)c2)CC1 [Example 688, 1-(5-Cyclopropyl-2-{2-[3-(4-methyl-piperazin-1-yl)-phenylamno]-pyridin-4-yl}-pyrido[3,4-d]pyrimidin-4-yl)-piperidin-4-ol] | > 7.00
NC1CCN(c2nc(-c3ccnc(Nc4c(F)cccc4F)c3)nc3cncc(C4CC4)c23)CC1 [Example 690, {4-[4-(4-Amino-piperidin-1-yl)-5-cyclopropyl-pyrido[3,4-d]pyrimidin-2-yl]-pyridin-2-yl}-(2,6-difluoro-phenyl)-amine] | > 7.00
C[C@H]1CN(c2nc(-c3ccnc(Nc4c(F)cccc4F)c3)nc3cncc(C4CC4)c23)CCN1 [Example 692, {4-[5-Cyclopropyl-4-((S)-3-methyl-piperazin-1-yl)-pyrido[3,4-d]pyrimidin-2-yl]-pyridin-2-yl}-(2,6-difluoro-phenyl)-amine] | > 7.00
C[C@H]1CN(c2nc(-c3ccnc(Nc4nc(F)ccc4F)c3)nc3cncc(C4CC4)c23)CCN1 [Example 694, {4-[5-Cyclopropyl-4-((S)-3-methyl-piperazin-1-yl)-pyrido[3,4-d]pyrimidin-2-yl]-pyridin-2-yl}-(3,6-difluoro-pyridin-2-yl)-amine] | > 7.00
c1ccc(Nc2cc(-c3nc(NC[C@@H]4CCCN4)c4c(C5CC5)cncc4n3)ccn2)cc1 [Example 697, [5-Cyclopropyl-2-(2-phenylamino-pyridin-4-yl)-pyrido[3,4-d]pyrimidin-4-yl]-(S)-1-pyrrolidin-2-ylmethyl-amine] | 6.00 to 7.00

Other lines, results leading:

pIC50 | Compound
5.00 to 6.00 | CS(=O)(=O)CCN1CCN(c2nc(-c3ccnc(NC(=O)C4CC4)c3)nc3cncc(C4CC4)c23)CC1 [Example 665, Cyclopropane-carboxylic acid (4-{5-cyclopropyl-4-[4-(2-methanesulfonyl-ethyl)-piperazin-1-yl]-pyrido[3,4-d]pyrimidin-2-yl}-pyridin-2-yl)-amide]
> 7.00 | Fc1ccc(C2CC2)cc1Nc1cc(-c2nc(N3CCNCC3)c3c(C4CC4)cncc3n2)ccn1 [Example 667, (5-Cyclopropyl-2-fluoro-phenyl)-[4-(5-cyclopropyl-4-piperazin-1-yl-pyrido[3,4-d]pyrimidin-2-yl)-pyridin-2-yl]-amine]
5.00 to 6.00 | CNC(=O)C1CCN(c2nc(-c3ccnc(Nc4c(F)cccc4F)c3)nc3cncc(C4CC4)c23)CC1 [Example 669, 1-{5-Cyclopropyl-2-[2-(2,6-difluoro-phenylamino)-pyridin-4-yl]-pyrido[3,4-d]pyrimidin-4-yl}-piperidine-4-carboxylic acid methylamide]
> 7.00 | Fc1ccc(Nc2cc(-c3nc(N4CCNCC4)c4c(C5CC5)cncc4n3)ccn2)c(F)n1 [Example 671, [4-(5-Cyclopropyl-4-piperazin-1-yl-pyrido[3,4-d]pyrimidin-2-yl)-pyridin-2-yl]-(2,6-difluoro-pyridin-3-yl)-amine]
5.00 to 6.00 | CC(C)NC(=O)C1CCN(c2nc(-c3ccnc(NC4CCCC4)c3)nc3cncc(C4CC4)c23)CC1 [Example 679, 1-[2-(2-Cyclopentylamino-pyridin-4-yl)-5-cyclopropyl-pyrido[3,4-d]pyrimidin-4-yl]-piperidine-4-carboxylicacid isopropylamide]
> 7.00 | Fc1cc(F)c(Nc2cc(-c3nc(N4CCNCC4)c4c(C5CC5)cncc4n3)ccn2)nc1F [Example 680]
> 7.00 | CN1CCN(c2cccc(Nc3cc(-c4nc(N5CCNCC5)c5c(C6CC6)cncc5n4)ccn3)c2)CC1 [Example 681, [4-(5-Cyclopropyl-4-piperazin-1-yl-pyrido[3,4-d]pyrimidin-2-yl)-pyridin-2-yl]-[3-(4-methyl-piperazin-1-yl)-phenyl]-amine]
6.00 to 7.00 | CN1CCN(c2cccc(Nc3cc(-c4nc(N5CCN(C(N)=O)CC5)c5c(C6CC6)cncc5n4)ccn3)c2)CC1 [Example 687, 4-(5-Cyclopropyl-2-{2-[3-(4-methyl-piperazin-1-yl)-phenylamino]-pyridin-4-yl}-pyrido[3,4-d]pyrimidin-4-yl)-piperazine-1-carboxylic acid amide]
> 7.00 | Fc1cc(-c2nc(N3CCNCC3)c3c(C4CC4)cncc3n2)ccn1 [Example 689, 5-Cyclopropyl-2-(2-fluoro-pyridin-4-yl)-4-piperazin-1-yl-pyrido[3,4-d]pyrimidine]
> 7.00 | C[C@H]1CN(c2nc(-c3ccnc(Nc4ccccc4F)c3)nc3cncc(C4CC4)c23)CCN1 [Example 691, {4-[5-Cyclopropyl-4-((S)-3-methyl-piperazin-1-yl)-pyrido[3,4-d]pyrimidin-2-yl]-pyridin-2-yl}-(2-fluoro-phenyl)-amine]
> 7.00 | C[C@H]1CN(c2nc(-c3ccnc(Nc4ccc(F)cc4)c3)nc3cncc(C4CC4)c23)CCN1 [Example 693, {4-[5-Cyclopropyl-4-((S)-3-methyl-piperazin-1-yl)-pyrido[3,4-d]pyrimidin-2-yl]-pyridin-2-yl}-(4-fluoro-phenyl)-amine]
> 7.00 | NCC1CCN(c2nc(-c3ccnc(Nc4c(F)cccc4F)c3)nc3cncc(C4CC4)c23)CC1 [Example 696, {4-[4-(4-Aminomethyl-piperidin-1-yl)-5-cyclopropyl-pyrido[3,4-d]pyrimidin-2-yl]-pyridin-2-yl}-(2,6-difluoro-phenyl)-amine]
